Results taken from the supplement of paper PMC8671470.

Legend:
Conditions in all cases: 72 h
HL-60 [1] = test: area under dose-response curve (viability, 1 nM-10 uM) (fraction (0-1)); higher = more sensitive
Summary of the method: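 For each screen, HL-60 cells in RPMI 1640 with 10% FBS carried either DMSO or 100 nM of one of three metabolic inhibitors while the full library was applied at five tenfold concentrations, 1–10,000 nM, in duplicate. Plates were 384-well and were kept 72 h at 37 °C, 5% CO2. Viability, measured by CellTiter-Glo, was normalised to wells with DMSO and with 10 μM proteasome inhibitor. Where area under the curve appears, it was fitted by four-parameter log-logistic models in drc and PharmacoGx.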

MOLM-13 [2] = system: MOLM-13
Summary of the method: (§1)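 Each of fifteen myeloid leukaemia cell lines was seeded in RPMI 1640 at a density titrated to its linear growth range. The cells were incubated for 72 h at 37 °C and 5% CO2 with compounds at five tenfold doses from 1 to 10,000 nM, in duplicate. After ATP luminescence was normalised to vehicle and to a positive control at 10 µM, four-parameter log-logistic curves were fitted. These curves gave the IC50.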

HL-60 [3] = system: HL-60
Summary of the method: as §1

MV4-11 [4] = system: MV4-11
Summary of the method: as §1

Mono-Mac-6 [5] = system: Mono-Mac-6
Summary of the method: as §1

KU-812 [6] = system: KU-812
Summary of the method: as §1

KCL-22 [7] = system: KCL-22
Summary of the method: as §1

BV-173 [8] = system: BV-173
Summary of the method: as §1

KG-1 [9] = system: KG-1
Summary of the method: as §1

ML-2 [10] = system: ML-2
Summary of the method: as §1

THP-1 [11] = system: THP-1
Summary of the method: as §1

NOMO-1 [12] = system: NOMO-1
Summary of the method: as §1

HEL [13] = system: HEL
Summary of the method: as §1

K-562 = system: K-562
Summary of the method: as §1

SHI-1 [14] = system: SHI-1
Summary of the method: as §1

LAMA-84 [15] = system: LAMA-84
Summary of the method: as §1

MOLM-13 [16] = test: cell viability (% survival relative to DMSO control, bortezomib = 0%); higher = less cytotoxic
Summary of the method: (§2)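 Percent survival figures are means of duplicate wells. They were obtained by CellTiter-Glo luminescence after 10 AML and 5 CML cell lines spent 72 h at 37 °C with 5% CO2 in 384-well plates with compounds at 1, 10, 100, 1000 or 10000 nM. Vehicle was set to 100% and a 10 µM positive control to 0%.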

HL-60 [17] = test: as above
Summary of the method: as §2

MV4-11 [18] = test: as above
Summary of the method: as §2

Mono-Mac-6 [19] = test: as above
Summary of the method: as §2

KU-812 [20] = test: as above
Summary of the method: as §2

KCL-22 [21] = test: as above
Summary of the method: as §2

BV-173 [22] = test: as above
Summary of the method: as §2

KG-1 [23] = test: as above
Summary of the method: as §2

ML-2 [24] = test: as above
Summary of the method: as §2

THP-1 [25] = test: as above
Summary of the method: as §2

NOMO-1 [26] = test: as above
Summary of the method: as §2

HEL [27] = test: as above
Summary of the method: as §2

SHI-1 [28] = test: as above
Summary of the method: as §2

LAMA-84 [29] = test: as above
Summary of the method: as §2

Cc1c(-c2ccc(-c3ccccc3F)cc2)nc2ccc(F)cc2c1C(=O)O [Brequinar]
Conditions	area under dose-response curve, co-treatment: pictilisib 100 nM	cell viability, 1 nM [%]	cell viability, 10 nM [%]	cell viability, 100 nM [%]	cell viability, 1000 nM [%]	cell viability, 10000 nM [%]
BV-173 [22]	–	94.7	90.3	93.3	118	32.2
HEL [27]	–	101	99.2	102	69	27.8
HL-60 [1]	< 0.0301	–	–	–	–	–
HL-60 [17]	–	98.5	95.8	93.2	82.7	50
KCL-22 [21]	–	101	94.3	97.9	56.3	29.2
KG-1 [23]	–	105	102	95	105	99
KU-812 [20]	–	87.2	95.4	93.1	100	80.8
LAMA-84 [29]	–	97.3	98.2	94.2	102	47.4
ML-2 [24]	–	97.2	98.2	88.9	107	40.3
MOLM-13 [16]	–	80.9	84.4	85.3	95.9	9.24
MV4-11 [18]	–	106	100	94.3	110	36.8
Mono-Mac-6 [19]	–	103	95.9	97.9	91.9	50.2
NOMO-1 [26]	–	97.3	95.3	104	104	89.5
SHI-1 [28]	–	85.3	99	103	111	63.9
THP-1 [25]	–	99.9	98.5	99	102	83.3

Conditions	IC50 (cell viability) [µM]
BV-173 [8]	7.19
HEL [13]	1.48
HL-60 [3]	6.09
K-562	8.59
KCL-22 [7]	0.94
KG-1 [9]	> 10
KU-812 [6]	> 10
LAMA-84 [15]	9.69
ML-2 [10]	8.46
MOLM-13 [2]	4.34
MV4-11 [4]	7.76
Mono-Mac-6 [5]	> 10
NOMO-1 [12]	> 10
SHI-1 [14]	> 10
THP-1 [11]	> 10

O=C(O)c1cc(N=Nc2ccc(S(=O)(=O)Nc3ccccn3)cc2)ccc1O [Sulfasalazine]
Conditions	area under dose-response curve, co-treatment: AZD3965 100 nM	area under dose-response curve, co-treatment: DMSO vehicle	area under dose-response curve, co-treatment: GSK2194069 100 nM	area under dose-response curve, co-treatment: pictilisib 100 nM	cell viability, 1 nM [%]	cell viability, 10 nM [%]	cell viability, 100 nM [%]	cell viability, 1000 nM [%]	cell viability, 10000 nM [%]
BV-173 [22]	–	–	–	–	106	90.3	113	99.7	112
HEL [27]	–	–	–	–	111	91.9	114	94	111
HL-60 [1]	< 0.0301	< 0.0301	< 0.0301	< 0.0301	–	–	–	–	–
HL-60 [17]	–	–	–	–	99.4	71.4	135	106	70.8
KCL-22 [21]	–	–	–	–	107	97.3	106	92.9	124
KG-1 [23]	–	–	–	–	103	89	112	43.4	128
KU-812 [20]	–	–	–	–	110	98.2	107	108	102
LAMA-84 [29]	–	–	–	–	105	97.1	101	106	105
ML-2 [24]	–	–	–	–	106	87.4	118	112	102
MOLM-13 [16]	–	–	–	–	105	102	113	84.6	136
MV4-11 [18]	–	–	–	–	101	89.1	112	95.9	103
Mono-Mac-6 [19]	–	–	–	–	105	92.7	120	103	104
NOMO-1 [26]	–	–	–	–	112	101	99	101	102
SHI-1 [28]	–	–	–	–	107	87.6	114	97.8	95.7
THP-1 [25]	–	–	–	–	107	101	106	101	106

Conditions	IC50 (cell viability) [µM]
BV-173 [8]	> 10
HEL [13]	> 10
HL-60 [3]	> 10
K-562	> 10
KCL-22 [7]	> 10
KG-1 [9]	> 10
KU-812 [6]	> 10
LAMA-84 [15]	> 10
ML-2 [10]	> 10
MOLM-13 [2]	> 10
MV4-11 [4]	> 10
Mono-Mac-6 [5]	> 10
NOMO-1 [12]	> 10
SHI-1 [14]	> 10
THP-1 [11]	> 10
